Source: patent US8674110B2, “Pyridylacetylenes for use as radiotracers and imaging agents” (Novartis AG, priority 2003, dated 2014)
“And” between values parts separate entries of the source, which are not always exact repeats. Equal values may be shown once.

Experiments:
human mGlu5 receptor = target: T1, human mGlu5 receptor (Homo sapiens, UniProt P41594); assay: Ki/IC50 determination (binding assay), radioligand displacement
T1 construct: expressed in transfected cells
Description: In vitro, the affinity for the mGlu5 receptor is determined using a radioligand displacement technique as described by Gasparini et al, Biorg. Med. Chem. Lett. 2002, 12, 407-409.

mGlu5 receptors = target: T2, mGlu5 receptors (Rattus norvegicus, UniProt P31424); assay: Organ and brain structure distribution (biodistribution) with and without blockade; format: in vivo, Sprague-Dawley rats; details: 30 min post-injection, individual values
T2 construct: from tissue; host or cells: rat brain regions and organs (in vivo tracer distribution)
T2 sequence (P31424 21-1203): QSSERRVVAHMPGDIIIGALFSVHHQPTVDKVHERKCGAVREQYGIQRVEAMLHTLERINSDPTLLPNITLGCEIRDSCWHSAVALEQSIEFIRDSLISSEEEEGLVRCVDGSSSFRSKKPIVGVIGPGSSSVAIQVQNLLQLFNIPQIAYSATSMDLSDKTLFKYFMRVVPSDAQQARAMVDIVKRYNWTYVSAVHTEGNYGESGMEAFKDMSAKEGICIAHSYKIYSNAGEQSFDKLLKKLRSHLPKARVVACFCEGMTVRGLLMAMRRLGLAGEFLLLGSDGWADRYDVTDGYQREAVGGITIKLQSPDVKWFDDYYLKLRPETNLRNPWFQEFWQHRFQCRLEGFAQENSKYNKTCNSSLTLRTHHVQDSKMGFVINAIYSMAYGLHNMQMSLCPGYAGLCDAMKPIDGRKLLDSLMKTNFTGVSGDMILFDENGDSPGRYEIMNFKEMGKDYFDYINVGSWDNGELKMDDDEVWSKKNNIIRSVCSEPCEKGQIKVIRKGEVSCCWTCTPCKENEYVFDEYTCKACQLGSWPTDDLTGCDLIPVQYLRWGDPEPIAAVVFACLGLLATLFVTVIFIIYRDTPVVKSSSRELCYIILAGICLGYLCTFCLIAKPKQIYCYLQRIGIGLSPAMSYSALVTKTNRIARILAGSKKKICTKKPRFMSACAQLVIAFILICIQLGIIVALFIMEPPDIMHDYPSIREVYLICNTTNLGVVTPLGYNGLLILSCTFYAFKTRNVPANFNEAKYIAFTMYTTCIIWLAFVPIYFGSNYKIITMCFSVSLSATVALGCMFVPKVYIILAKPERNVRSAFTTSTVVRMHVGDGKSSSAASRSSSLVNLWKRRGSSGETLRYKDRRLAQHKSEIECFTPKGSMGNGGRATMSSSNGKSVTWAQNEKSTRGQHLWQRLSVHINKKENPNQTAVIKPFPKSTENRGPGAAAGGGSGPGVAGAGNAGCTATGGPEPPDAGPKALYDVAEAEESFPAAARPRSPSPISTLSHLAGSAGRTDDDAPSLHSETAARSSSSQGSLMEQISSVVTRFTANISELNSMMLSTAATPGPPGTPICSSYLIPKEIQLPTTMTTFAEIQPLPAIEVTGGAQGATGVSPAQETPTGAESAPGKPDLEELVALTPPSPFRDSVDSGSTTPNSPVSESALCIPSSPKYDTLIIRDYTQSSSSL
Description: Two groups of male adult Sprague-Dawley rats weighing 250-300 g are used for the biodistribution studies. The first group (n=3) serves as the control group and the second group (n=3) serves as the blockade group. Each animal received 250-300 pmol (0.6-40 MBq) of 3-(6-methyl-pyridin-2-ylethynyl)-cyclohex-2-enone O-[^11C-methyl]oxime via a lateral tail vein. The blockade group is co-injected with 2-methyl-6-((3-methoxyphenyl)ethynyl)-pyridine (1 mg/kg) whereas the control group (n=3) receives a corresponding volume of 0.9% NaCl. The animals are sacrificed 30 min post-injection. Organ or brain regions such as hippocampus, striatum, cortex and cerebellum are removed and measured in a gamma-counter. The tissue distribution is expressed as percentage of injected dose per gram wet tissue (% ID/g organ).
K1, K2, K3 are individual values for control animals. B1, B2, B3 are individual values for animals co-injected with 2-methyl-6-((3-methoxyphenyl)ethynyl)-pyridine.

[1] = blockade animals B1-B3 co-injected with 2-methyl-6-((3-methoxyphenyl)ethynyl)-pyridine 1 mg/kg
[2] = control animals K1-K3 (0.9% NaCl), i.v. tail vein

T1 sequence (P41594 21-1180 isoform P41594-2 limits assumed): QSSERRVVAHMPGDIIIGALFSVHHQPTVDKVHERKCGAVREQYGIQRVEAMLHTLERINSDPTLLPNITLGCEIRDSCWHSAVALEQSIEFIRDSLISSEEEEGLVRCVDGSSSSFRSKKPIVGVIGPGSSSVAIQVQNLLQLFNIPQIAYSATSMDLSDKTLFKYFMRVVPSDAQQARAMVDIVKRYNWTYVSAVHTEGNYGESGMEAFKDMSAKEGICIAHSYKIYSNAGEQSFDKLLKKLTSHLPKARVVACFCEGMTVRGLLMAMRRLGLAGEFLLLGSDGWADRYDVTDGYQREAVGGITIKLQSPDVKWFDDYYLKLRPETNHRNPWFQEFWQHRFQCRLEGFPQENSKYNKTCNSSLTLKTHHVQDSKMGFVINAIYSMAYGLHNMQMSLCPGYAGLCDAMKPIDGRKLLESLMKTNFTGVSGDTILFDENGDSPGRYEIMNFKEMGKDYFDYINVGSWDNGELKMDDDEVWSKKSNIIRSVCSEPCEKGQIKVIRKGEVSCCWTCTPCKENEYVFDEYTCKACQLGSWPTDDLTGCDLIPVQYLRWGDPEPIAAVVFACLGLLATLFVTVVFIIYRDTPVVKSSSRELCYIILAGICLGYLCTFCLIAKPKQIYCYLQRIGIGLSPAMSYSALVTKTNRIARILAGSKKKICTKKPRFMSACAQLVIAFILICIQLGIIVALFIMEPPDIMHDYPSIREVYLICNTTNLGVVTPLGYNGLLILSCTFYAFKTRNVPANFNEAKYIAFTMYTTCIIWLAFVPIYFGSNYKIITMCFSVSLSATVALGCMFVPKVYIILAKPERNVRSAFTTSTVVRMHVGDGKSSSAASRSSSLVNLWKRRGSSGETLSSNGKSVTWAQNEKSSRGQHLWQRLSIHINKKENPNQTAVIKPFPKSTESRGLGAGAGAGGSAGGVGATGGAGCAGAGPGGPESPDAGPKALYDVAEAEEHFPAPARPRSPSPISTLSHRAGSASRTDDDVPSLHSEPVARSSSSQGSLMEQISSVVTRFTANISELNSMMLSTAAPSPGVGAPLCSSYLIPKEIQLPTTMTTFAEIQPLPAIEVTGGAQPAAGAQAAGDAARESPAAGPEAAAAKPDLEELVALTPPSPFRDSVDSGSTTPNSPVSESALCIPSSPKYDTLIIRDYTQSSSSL

| SMILES | Ki (human mGlu5 receptor; calculated using the Cheng-Prusoff equation, radioligand concentration 2 nM) [nM] | Hill coefficient (human mGlu5 receptor; displacement of [3H]-2-methyl-6-((3-methoxyphenyl)ethynyl)-pyridine, L-tk cell membranes, human mGlu5) | IC50 (human mGlu5 receptor; membrane of L-tk cells stably expressing the human mGlu5 receptor, 95% confidence intervals: 6.0-10.0 nM, read-out: IC50 for the displacement of [3H]-2-methyl-6-((3-methoxyphenyl)ethynyl)-pyridine) [nM] | percentage of injected dose per gram wet tissue, Cerebellum (mGlu5 receptors; [1]) | percentage of injected dose per gram wet tissue, Cortex (mGlu5 receptors; [1]) | percentage of injected dose per gram wet tissue, Hippocampus (mGlu5 receptors; [1]) | percentage of injected dose per gram wet tissue, Midbrain (mGlu5 receptors; [1]) | percentage of injected dose per gram wet tissue, Restbrain (mGlu5 receptors; [1]) | percentage of injected dose per gram wet tissue, Striatum (mGlu5 receptors; [1]) | percentage of injected dose per gram wet tissue, Whole brain (mGlu5 receptors; [1]) | percentage of injected dose per gram wet tissue, Cerebellum (mGlu5 receptors; [2]) | percentage of injected dose per gram wet tissue, Cortex (mGlu5 receptors; [2]) | percentage of injected dose per gram wet tissue, Hippocampus (mGlu5 receptors; [2]) | percentage of injected dose per gram wet tissue, Midbrain (mGlu5 receptors; [2]) | percentage of injected dose per gram wet tissue, Restbrain (mGlu5 receptors; [2]) | percentage of injected dose per gram wet tissue, Striatum (mGlu5 receptors; [2]) | percentage of injected dose per gram wet tissue, Whole brain (mGlu5 receptors; [2]) |
| --- | --- | --- | --- | --- | --- | --- | --- | --- | --- | --- | --- | --- | --- | --- | --- | --- | --- |
| CON=C1C=C(C#Cc2cccc(C)n2)CCC1 [3-(6-methyl-pyridin-2-ylethynyl)-cyclohex-2-enone O-methyl-oxime] | 4 | 1.08 | 8 |  |  |  |  |  |  |  |  |  |  |  |  |  |  |
| Cc1cccc(C#CC2=CC(=NO[11CH3])CCC2)n1 [Example 1, 3-(6-Methyl-pyridin-2-ylethynyl)-cyclohex-2-enone O-[^11C-methyl]-oxime] |  |  |  | 0.04052 % ID/g organ and 0.03608 % ID/g organ and 0.03421 % ID/g organ | 0.04964 % ID/g organ and 0.05582 % ID/g organ and 0.05431 % ID/g organ | 0.05184 % ID/g organ and 0.06195 % ID/g organ and 0.05972 % ID/g organ | 0.03876 % ID/g organ and 0.047 % ID/g organ and 0.04422 % ID/g organ | 0.03832 % ID/g organ and 0.04762 % ID/g organ and 0.04383 % ID/g organ | 0.06495 % ID/g organ and 0.07158 % ID/g organ and 0.06487 % ID/g organ | 0.0458 % ID/g organ and 0.05118 % ID/g organ and 0.04951 % ID/g organ | 0.03322 % ID/g organ and 0.03925 % ID/g organ and 0.03699 % ID/g organ | 0.1485 % ID/g organ and 0.1832 % ID/g organ and 0.1691 % ID/g organ | 0.1615 % ID/g organ and 0.2544 % ID/g organ and 0.2126 % ID/g organ | 0.07703 % ID/g organ and 0.1056 % ID/g organ and 0.09091 % ID/g organ | 0.05519 % ID/g organ and 0.0652 % ID/g organ and 0.0607 % ID/g organ | 0.2256 % ID/g organ and 0.3069 % ID/g organ and 0.2816 % ID/g organ | 0.1112 % ID/g organ and 0.1366 % ID/g organ and 0.13 % ID/g organ |
